Results from patent US20050026977A1, “Zonisamide use in eating disorders” (priority 2002, published 2005).

Key:
[1] = preliminary studies; cited from earlier work
rats = details: cortical application of tungstic acid gel in rats; cited from earlier work
[2] = test system: cultured mouse spinal cord neurons; details: 10-30 μg/mL; cited from earlier work
cats [3] = details: cortical freezing in cats; cited from earlier work
cats [4] = details: electrical stimulation of the visual cortex; cited from earlier work
[5] = test system: GABA/benzodiazepine receptor ionophore complex; details: in vitro; cited from earlier work
kindled rat model = details: in vivo; cited from earlier work
[6] = test system: obese subjects (BMI of 30-44 kg/m^2); experiment: 16-week randomized, double-blind, placebo-controlled trial of zonisamide in obesity; format: in vivo, human
Procedure: Objective: Short-term efficacy and safety of zonisamide in the treatment of obesity was evaluated. Inclusion Criteria: (1) Age 21-50; (2) BMI of 30-44 kg/m^2; and (3) Otherwise healthy as determined by the principal investigator. […] Method: 60 subjects were assigned to receive zonisamide or placebo (1:1 ratio) in a randomized, double-blind fashion for 16 weeks in addition to a slightly hypocaloric (500 kcal/day deficit) diet. Zonisamide dosing was flexible with a maximum of 600 mg/day. Zonisamide was started at 100 mg/d. Based on tolerability, the dose was titrated up as follows: Weeks 3-4: 200 mg/d; Weeks 5-6: 300 mg/d; Weeks 7-12: 400 mg/d. At the end of week 12, for those where at least 5% weight loss was not achieved, the dose was further increased to 600 mg/d. The entire dose is given at bedtime. However, based on tolerability, a part of the daily dose may be given in the morning.

[7] = in vivo; cited from earlier work
beagle dogs = details: dog, in vivo, 75 mg/kg/day; cited from earlier work
patients = patients treated with zonisamide; cited from earlier work
rat hippocampal slices = details: 10-30 μg/mL; cited from earlier work

SMILES | effect on appetite and binging [1] | interictal spikes and secondarily generalized seizures (rats) | effect on postsynaptic GABA or glutamate responses [2] | effect on synaptically-driven electrical activity [2] | interictal spikes and secondarily generalized seizures (cats [3]) | duration of cortical focal seizures (cats [4]) | binding to GABA/benzodiazepine receptor ionophore complex [5] | anticonvulsant activity in threshold for generalized seizures (kindled rat model) | average bodyweight lost ([6]; 16-week period, all randomized subjects, last observation carried forward, flexible dosing, maximum 600 mg/day, plus hypocaloric diet, p<0.0001 vs placebo) | greater weight loss over placebo treatment (random coefficient regression estimate) ([6]; 16-week study duration, effects for age, race, gender, BMI, percent body fat, p<0.0001) | efficacy versus placebo as adjunct to hypocaloric diet in treatment of obesity ([6]; 16 weeks) | tolerability / side effects ([6]; 16 weeks, up to 600 mg/day) | subjects who lost ≥5% weight ([6]; 16 weeks, responders/subjects in group, p<0.0003 vs placebo) | adverse effect on appetite [7] | body weight change in chronic toxicity test (beagle dogs) | course of weight loss over time (patients) | weight loss as adverse event (patients) | effect on neuronal or glial uptake of [^3H]-GABA (rat hippocampal slices)
CC1(C)O[C@@H]2[C@@H](CO[C@@]3(COS(N)(=O)=O)OC(C)(C)O[C@@H]23)O1 [topiramate] | suppress the appetite and to reduce the amount of binging |  |  |  |  |  |  |  |  |  |  |  |  |  |  |  |  | 
NS(=O)(=O)Cc1noc2ccccc12 [zonisamide, 1,2-benzisoxazole-3-methanesulfonamide] |  | suppresses both interictal spikes and the secondarily generalized seizures | without affecting postsynaptic GABA or glutamate responses | suppresses synaptically-driven electrical activity | suppresses both interictal spikes and the secondarily generalized seizures | reduced the duration of cortical focal seizures | binds to the GABA/benzodiazepine receptor ionophore complex in an allosteric fashion which does not produce changes in chloride flux | demonstrated an anticonvulsant activity | 5.98% | 4.99 kg | significantly more effective than placebo | tolerated well with minimal side effects | 17/30 | loss of appetite as an adverse effect | early body weight losses occurred | the weight loss did not continue over time | weight loss was an adverse event | without affecting
